Measured values reported in the supplement of paper PMC11061612.

How the values were obtained:
Test in all cases: combination Emax (second highest fraction inhibited in the dose matrix, 72 h); higher = more inhibition; extreme values may be limits of the assay
[1] = system: 786-0 (Kidney Carcinoma)
Method in brief: (§1)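 Cell lines grown in DMEM/F12 or RPMI with 10% FBS were plated in 1536-well plates and held 24 hours at 37°C, 5% CO2 before 72 hours of exposure to two-drug dose matrices, with DMSO typically at 0.2%. CellTiter-Glo 2.0 luminescence gave viability, which was converted to inhibition. Vehicle wells were set to 0 and blank wells to 1. Combination Emax is the second-highest inhibition in the matrix, and Bliss excess is the observed combination effect minus the expected EA + EB − EA·EB, where EA and EB are the single-agent effects.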

[2] = system: AsPC-1 (Pancreatic Carcinoma)
Method in brief: as §1

[3] = system: Caov-3 (Ovarian Carcinoma)
Method in brief: as §1

[4] = system: HTC-C3 (Thyroid Gland Carcinoma)
Method in brief: as §1

[5] = system: HuO-3N1 (Osteosarcoma)
Method in brief: as §1

[6] = system: JHH-1 (Hepatocellular Carcinoma)
Method in brief: as §1

[7] = system: KYSE-70 (Esophageal Squamous Cell Carcinoma)
Method in brief: as §1

[8] = system: LOUCY (T-Lymphoblastic Leukemia)
Method in brief: as §1

[9] = system: NCI-H196 (Small Cell Lung Carcinoma)
Method in brief: as §1

[10] = system: NCI-H810 (Non-Small Cell Lung Carcinoma)
Method in brief: as §1

[11] = system: NKM-1 (Acute Myeloid Leukemia)
Method in brief: as §1

[12] = system: OCI-AML5 (Acute Myeloid Leukemia)
Method in brief: as §1

[13] = system: OV-90 (Ovarian Carcinoma)
Method in brief: as §1

[14] = system: OVTOKO (Ovarian Carcinoma)
Method in brief: as §1

[15] = system: PANC-02-03 (Pancreatic Carcinoma)
Method in brief: as §1

[16] = system: PC-14 (Lung Adenocarcinoma)
Method in brief: as §1

[17] = system: RERF-LC-KJ (Lung Adenocarcinoma)
Method in brief: as §1

[18] = system: RL95-2 (Endometrial Carcinoma)
Method in brief: as §1

[19] = system: RMG-I (Ovarian Carcinoma)
Method in brief: as §1

[20] = system: SK-MM-2 (Plasma Cell Myeloma)
Method in brief: as §1

Compound	combination Emax [1]	combination Emax [2]	combination Emax [3]	combination Emax [4]	combination Emax [5]	combination Emax [6]	combination Emax [7]	combination Emax [8]	combination Emax [9]	combination Emax [10]	combination Emax [11]	combination Emax [12]	combination Emax [13]	combination Emax [14]	combination Emax [15]	combination Emax [16]	combination Emax [17]	combination Emax [18]	combination Emax [19]	combination Emax [20]
COc1cccc(OCCCN)c1-c1cc(Nc2cnc(C#N)cn2)n[nH]1 [Prexasertib] + CCc1c2c(nc3ccc(O)cc13)-c1cc3c(c(=O)n1C2)COC(=O)[C@]3(O)CC [SN-38] (first compound max 1 µM, 7x7, partner max 0.3 µM)	0.938	0.41	0.984	0.966	0.808	0.75	0.869	1	0.659	0.98	0.938	1	0.573	0.532	0.756	0.894	0.903	0.979	0.505	0.875
COc1cccc(OCCCN)c1-c1cc(Nc2cnc(C#N)cn2)n[nH]1 [Prexasertib] + CN(C)CCCOc1ccc(-c2ccc3ncc4c(c3c2)n(C2CCOCC2)c(=O)n4C)cn1 [AZD0156] (first compound max 1 µM, 7x7, partner max 1 µM)	0.861	0.444	0.806	0.768	0.48	0.677	0.618	1	0.606	0.877	0.956	1	0.532	0.647	0.609	0.85	0.349	0.888	0.698	0.652
COc1cccc(OCCCN)c1-c1cc(Nc2cnc(C#N)cn2)n[nH]1 [Prexasertib] + C[C@@H]1COCCN1C2=NC(=NC(=C2)C3(CC3)[S@](=N)(=O)C)C4=C5C=CNC5=NC=C4 [AZD6738] (first compound max 1 µM, 7x7, partner max 10 µM)	0.901	0.416	0.785	0.842	0.432	0.579	0.602	1	0.566	0.9	0.938	0.988	0.548	0.516	0.639	0.879	0.278	0.898	0.629	0.634
COc1cccc(OCCCN)c1-c1cc(Nc2cnc(C#N)cn2)n[nH]1 [Prexasertib] + Cc1cc2ncnn2cc1Nc1ncc2c(n1)n(C1CCOCC1)c(=O)n2C [AZD7648] (first compound max 1 µM, 7x7, partner max 10 µM)	0.896	0.425	0.797	0.843	0.49	0.559	0.615	1	0.551	0.896	0.965	0.988	0.548	0.526	0.609	0.861	0.416	0.893	0.678	0.67
COc1cccc(OCCCN)c1-c1cc(Nc2cnc(C#N)cn2)n[nH]1 [Prexasertib] + O=C(c1cc(Cc2n[nH]c(=O)c3ccccc23)ccc1F)N1CCN(C(=O)C2CC2)CC1 [Olaparib] (first compound max 1 µM, 7x7, partner max 10 µM)	0.869	0.332	0.855	0.751	0.524	0.582	0.626	1	0.556	0.896	0.902	0.991	0.558	0.52	0.502	0.848	0.203	0.882	0.515	0.656
COc1cc2c(cc1OCCCCCOc1cc3c(cc1OC)C(=O)N1C=C(C)C[C@H]1C=N3)N=C[C@@H]1CC(C)=CN1C2=O [SG3199] + O=C(c1cc(Cc2n[nH]c(=O)c3ccccc23)ccc1F)N1CCN(C(=O)C2CC2)CC1 [Olaparib] (first compound max 0.001 µM, 7x7, partner max 10 µM)	0.0509	0.02	0.202	0.246	0.219	0.136	0.0678	0.12	0.106	0.131	0.663	0.182	0.098	0.111	0.0277	0.179	0.148	0.264	0.114	0.137
CCc1c2c(nc3ccc(O)cc13)-c1cc3c(c(=O)n1C2)COC(=O)[C@]3(O)CC [SN-38] + CN(C)CCCOc1ccc(-c2ccc3ncc4c(c3c2)n(C2CCOCC2)c(=O)n4C)cn1 [AZD0156] (first compound max 0.3 µM, 7x7, partner max 1 µM)	0.884	0.135	0.977	0.764	0.567	0.316	0.25	0.759	0.0732	0.51	0.973	0.998	0.457	0.194	0.693	0.592	0.673	0.424	0.446	0.883
CC(=O)Nc1cccc(-n2c(=O)n(C3CC3)c(=O)c3c(Nc4ccc(I)cc4F)n(C)c(=O)c(C)c32)c1 [Trametinib] + Cc1nc(-c2cn3c(n2)-c2ccc(-c4cnn(C(C)(C)C(N)=O)c4)cc2OCC3)n(C(C)C)n1 [Taselisib] (first compound max 1 µM, 7x7, partner max 10 µM)	0.613	0.608	0.836	0.744	0.461	1	0.804	0.527	0.376	0.121	1	1	0.834	0.795	0.939	1	0.727	0.588	0.485	0.43
CC1(C)CCC(CN2CCN(c3ccc(C(=O)NS(=O)(=O)c4ccc(NCC5CCOCC5)c([N+](=O)[O-])c4)c(Oc4cnc5[nH]ccc5c4)c3)CC2)=C(c2ccc(Cl)cc2)C1 [Venetoclax] + C1CN(CCC1(C(=O)N[C@@H](CCO)C2=CC=C(C=C2)Cl)N)C3=NC=NC4=C3C=CN4 [Capivasertib] (first compound max 1 µM, 7x7, partner max 3 µM)	0.37	0.207	0.553	0.163	0.242	0.115	0.234	1	0.198	0.113	1	0.958	0.366	0.462	0.189	0.328	0.377	0.494	0.242	1
CC1(C)CCC(CN2CCN(c3ccc(C(=O)NS(=O)(=O)c4ccc(NCC5CCOCC5)c([N+](=O)[O-])c4)c(Oc4cnc5[nH]ccc5c4)c3)CC2)=C(c2ccc(Cl)cc2)C1 [Venetoclax] + C=CCn1c(=O)c2cnc(Nc3ccc(N4CCN(C)CC4)cc3)nc2n1-c1cccc(C(C)(C)O)n1 [AZD1775] (first compound max 1 µM, partner max 1 µM)	0.582	0.282	0.801	0.341	0.386	0.578	0.604	1	0.574	0.781	0.995	1	0.512	0.529	0.494	0.93	0.283	0.475	0.57	1
CC1(C)CCC(CN2CCN(c3ccc(C(=O)NS(=O)(=O)c4ccc(NCC5CCOCC5)c([N+](=O)[O-])c4)c(Oc4cnc5[nH]ccc5c4)c3)CC2)=C(c2ccc(Cl)cc2)C1 [Venetoclax] + CCN(CCO)CCCOc1ccc2c(Nc3cc(CC(=O)Nc4cccc(F)c4)[nH]n3)ncnc2c1 [AZD2811] (first compound max 1 µM, 7x7, partner max 1 µM)	0.159	0.154	0.892	0.121	0.256	0.268	0.224	1	0.126	0.492	1	1	0.285	0.263	0.217	0.312	0.298	0.593	0.302	1
CC1(C)CCC(CN2CCN(c3ccc(C(=O)NS(=O)(=O)c4ccc(NCC5CCOCC5)c([N+](=O)[O-])c4)c(Oc4cnc5[nH]ccc5c4)c3)CC2)=C(c2ccc(Cl)cc2)C1 [Venetoclax] + CN(C)CCCOc1ccc(-c2ccc3ncc4c(c3c2)n(C2CCOCC2)c(=O)n4C)cn1 [AZD0156] (first compound max 1 µM, 7x7, partner max 1 µM)	0.195	0.193	0.59	0.205	0.262	0.214	0.104	1	0.113	0.121	0.959	0.901	0.3	0.385	0.194	0.259	0.278	0.135	0.348	1
